Experimental data from US10369138B2, “Monobactam organic compounds for the treatment of bacterial infections” (Novartis AG, priority 2014, dated 2019).
Converted amounts (≈) assume the structure as drawn.

Experiments:
E. coli containing KPC-2 = assay: MIC by broth microdilution, E. coli containing KPC-2 (Ec KPC2 Iso); assay type: cell-based; conditions: Escherichia coli, read-out: Ec KPC2 Iso (MIC), E. coli containing KPC-2 (carbapenemase from Klebsiella pneumoniae)
Outline: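 Host E. coli BW25113 pspB carrying multicopy pBAD18-kan plasmid with constitutive TEM-promoter KPC-2 expression (periplasmic signal sequence); broth microdilution per CLSI in cation-adjusted Mueller-Hinton broth, inoculum ~5×10^5 CFU/mL, compounds twofold serially diluted from DMSO masters (10% DMSO in dilution series added).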

E. coli strain 25922 = assay: MIC by broth microdilution, E. coli strain 25922; assay type: cell-based; conditions: Escherichia coli, 25922, E. coli strain 25922; read-out: Ec 25922 (MIC)
Outline: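 CLSI broth microdilution in cation-adjusted Mueller-Hinton broth, inoculum about 5×10^5 CFU/mL, 10% DMSO from the diluted series, 20 h at 35-37° C. MIC is the lowest concentration preventing visible growth, read by eye and at 600 nm.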

## N=C(NCc1cnn(C[C@@H]2[C@H](NC(=O)/C(=N\OC3(C(=O)O)CC3)c3csc(N)n3)C(=O)N2S(=O)(=O)O)n1)N1CC(CN)C1 [Example 127, 1-(((Z)-(2-(((2R,3S)-2-((4-((3-(aminomethyl)azetidine-1-carboximidamido)methyl)-2H-1,2,3-triazol-2-yl)methyl)-4-oxo-1-sulfoazetidin-3-yl)amino)-1-(2-aminothiazol-4-yl)-2-oxoethylidene)amino)oxy)cyclopropanecarboxylic acid]
E. coli containing KPC-2
  MIC: 0.25 µg/mL (≈ 0.39 µM)
E. coli strain 25922
  MIC: 0.25 µg/mL (≈ 0.39 µM)

## N=C(NCc1cnn(C[C@@H]2[C@H](NC(=O)/C(=N\OC3(C(=O)O)CC3)c3csc(N)n3)C(=O)N2S(=O)(=O)O)n1)N[C@@H]1CCNC1 (stereo in doubt) [Example 142, 1-(((Z)-(1-(2-aminothiazol-4-yl)-2-oxo-2-(((3S,4R)-2-oxo-4-((4-((3-(®-pyrrolidin-3-yl)guanidino)methyl)-2H-1,2,3-triazol-2-yl)methyl)-1-sulfoazetidin-3-yl)amino)ethylidene)amino)oxy)cyclopropanecarboxylic acid]
E. coli containing KPC-2
  MIC: 0.25 µg/mL (≈ 0.39 µM)
E. coli strain 25922
  MIC: 0.5 µg/mL (≈ 0.78 µM)

## CC(C)(N)CCNCc1cnn(C[C@@H]2[C@H](NC(=O)/C(=N\OC3(C(=O)O)CC3)c3csc(N)n3)C(=O)N2S(=O)(=O)O)n1 [Example 131, 1-(((Z)-(2-(((2R,3S)-2-((4-(((3-amino-3-methylbutyl)amino)methyl)-2H-1,2,3-triazol-2-yl)methyl)-4-oxo-1-sulfoazetidin-3-yl)amino)-1-(2-aminothiazol-4-yl)-2-oxoethylidene)amino)oxy)cyclopropanecarboxylic acid]
E. coli containing KPC-2
  MIC: 2 µg/mL (≈ 3.25 µM)
E. coli strain 25922
  MIC: 1 µg/mL (≈ 1.63 µM)

## N=C(NCCN)NCc1cnn(C[C@@H]2[C@H](NC(=O)/C(=N\OC3(C(=O)O)CC3)c3csc(N)n3)C(=O)N2S(=O)(=O)O)n1 [Example 129, 1-(((Z)-(2-(((2R,3S)-2-((4-((3-(2-aminoethyl)guanidino)methyl)-2H-1,2,3-triazol-2-yl)methyl)-4-oxo-1-sulfoazetidin-3-yl)amino)-1-(2-aminothiazol-4-yl)-2-oxoethylidene)amino)oxy)cyclopropanecarboxylic acid]
E. coli containing KPC-2
  MIC: 1 µg/mL (≈ 1.63 µM)
E. coli strain 25922
  MIC: 0.5 µg/mL (≈ 0.814 µM)

## CC(C)(O/N=C(\C(=O)N[C@@H]1C(=O)N(S(=O)(=O)O)[C@@H]1Cn1cc(CNC(=O)C[N+](C)(C)C)nn1)c1csc(N)n1)C(=O)O [Example 43, (3S,4R)-3-((Z)-2-(2-aminothiazol-4-yl)-2-(((2-carboxypropan-2-yl)oxy)imino)acetamido)-2-oxo-4-((4-((2-(trimethylammonio)acetamido)methyl)-1H-1,2,3-triazol-1-yl)methyl)azetidine-1-sulfonate]
E. coli containing KPC-2
  MIC: 2 µg/mL
E. coli strain 25922
  MIC: 2 µg/mL

## NCCCNCc1cnn(C[C@@H]2[C@H](NC(=O)/C(=N\OC3(C(=O)O)CC3)c3csc(N)n3)C(=O)N2S(=O)(=O)O)n1 [Example 90, 1-(((Z)-(2-(((2R,3S)-2-((4-(((3-aminopropyl)amino)methyl)-2H-1,2,3-triazol-2-yl)methyl)-4-oxo-1-sulfoazetidin-3-yl)amino)-1-(2-aminothiazol-4-yl)-2-oxoethylidene)amino)oxy)cyclopropanecarboxylic acid]
E. coli containing KPC-2
  MIC: 0.25 µg/mL (≈ 0.426 µM)
E. coli strain 25922
  MIC: 0.25 µg/mL (≈ 0.426 µM)

## CN(C)Cc1cnn(C[C@@H]2[C@H](NC(=O)/C(=N\OC(C)(C)C(=O)O)c3csc(N)n3)C(=O)N2S(=O)(=O)O)n1 [Example 99, 2-(((Z)-(1-(2-aminothiazol-4-yl)-2-(((2R,3S)-2-((4-((dimethylamino)methyl)-2H-1,2,3-triazol-2-yl)methyl)-4-oxo-1-sulfoazetidin-3-yl)amino)-2-oxoethylidene)amino)oxy)-2-methylpropanoic acid]
E. coli containing KPC-2
  MIC: 4 µg/mL (≈ 7.15 µM)
E. coli strain 25922
  MIC: 2 µg/mL (≈ 3.57 µM)

## NCCNCc1cnn(C[C@@H]2[C@H](NC(=O)/C(=N\OC3(C(=O)O)CC3)c3csc(N)n3)C(=O)N2S(=O)(=O)O)n1 [Example 102, 1-(((Z)-(2-(((2R,3S)-2-((4-(((2-aminoethyl)amino)methyl)-2H-1,2,3-triazol-2-yl)methyl)-4-oxo-1-sulfoazetidin-3-yl)amino)-1-(2-aminothiazol-4-yl)-2-oxoethylidene)amino)oxy)cyclopropanecarboxylic acid]
E. coli containing KPC-2
  MIC: 0.25 µg/mL (≈ 0.437 µM)
E. coli strain 25922
  MIC: 0.25 µg/mL (≈ 0.437 µM)

## Nc1nc(/C(=N/OC2(C(=O)O)CCC2)C(=O)N[C@@H]2C(=O)N(S(=O)(=O)O)[C@@H]2Cn2cncn2)cs1 [Example 32, 1-(((Z)-(2-(((2R,3S)-2-((1H-1,2,4-triazol-1-yl)methyl)-4-oxo-1-sulfoazetidin-3-yl)amino)-1-(2-aminothiazol-4-yl)-2-oxoethylidene)amino)oxy)cyclobutanecarboxylic acid]
E. coli containing KPC-2
  MIC: 1 µg/mL (≈ 1.94 µM)
E. coli strain 25922
  MIC: 2 µg/mL (≈ 3.89 µM)

## CC(C)(O/N=C(\C(=O)N[C@@H]1C(=O)N(S(=O)(=O)O)[C@@H]1Cn1nnnc1CN)c1csc(N)n1)C(=O)O [Example 6, 2-(((Z)-(2-(((2R,3S)-2-((5-(aminomethyl)-1H-tetrazol-1-yl)methyl)-4-oxo-1-sulfoazetidin-3-yl)amino)-1-(2-aminothiazol-4-yl)-2-oxoethylidene)amino)oxy)-2-methylpropanoic acid]
E. coli containing KPC-2
  MIC: 1 µg/mL (≈ 1.88 µM)
E. coli strain 25922
  MIC: 4 µg/mL (≈ 7.51 µM)

## CC(C)(O/N=C(\C(=O)N[C@@H]1C(=O)N(S(=O)(=O)O)[C@@H]1Cn1cc(CCN)nn1)c1csc(N)n1)C(=O)O [Example 41, 2-(((Z)-(2-(((2R,3S)-2-((4-(2-aminoethyl)-1H-1,2,3-triazol-1-yl)methyl)-4-oxo-1-sulfoazetidin-3-yl)amino)-1-(2-aminothiazol-4-yl)-2-oxoethylidene)amino)oxy)-2-methylpropanoic acid]
E. coli containing KPC-2
  MIC: 2 µg/mL (≈ 3.67 µM)
E. coli strain 25922
  MIC: 1 µg/mL (≈ 1.83 µM)

## C[C@H](NCCCN)c1cnn(C[C@@H]2[C@H](NC(=O)/C(=N\OC3(C(=O)O)CC3)c3csc(N)n3)C(=O)N2S(=O)(=O)O)n1 [Example 146, 1-(((Z)-(2-(((2R,3S)-2-((4-((S)-1-((3-aminopropyl)amino)ethyl)-2H-1,2,3-triazol-2-yl)methyl)-4-oxo-1-sulfoazetidin-3-yl)amino)-1-(2-aminothiazol-4-yl)-2-oxoethylidene)amino)oxy)cyclopropanecarboxylic acid]
E. coli containing KPC-2
  MIC: 0.5 µg/mL (≈ 0.832 µM)
E. coli strain 25922
  MIC: 0.5 µg/mL (≈ 0.832 µM)

## CNCCCNCc1cnn(C[C@@H]2[C@H](NC(=O)/C(=N\OC3(C(=O)O)CC3)c3csc(N)n3)C(=O)N2S(=O)(=O)O)n1 [Example 116, 1-(((Z)-(1-(2-aminothiazol-4-yl)-2-(((2R,3S)-2-((4-(((3-(methylamino)propyl)amino)methyl)-2H-1,2,3-triazol-2-yl)methyl)-4-oxo-1-sulfoazetidin-3-yl)amino)-2-oxoethylidene)amino)oxy)cyclopropanecarboxylic acid]
E. coli containing KPC-2
  MIC: 0.125 µg/mL (≈ 0.208 µM)
E. coli strain 25922
  MIC: 0.25 µg/mL (≈ 0.416 µM)

## CC(C)(O/N=C(\C(=O)N[C@@H]1C(=O)N(S(=O)(=O)O)[C@@H]1Cn1ccnn1)c1csc(N)n1)C(=O)O [Example 50, 2-(((Z)-(2-(((2R,3S)-2-((1H-1,2,3-triazol-1-yl)methyl)-4-oxo-1-sulfoazetidin-3-yl)amino)-1-(2-aminothiazol-4-yl)-2-oxoethylidene)amino)oxy)-2-methylpropanoic acid]
E. coli containing KPC-2
  MIC: 2.8 µg/mL (≈ 5.57 µM)
E. coli strain 25922
  MIC: 2 µg/mL (≈ 3.98 µM)

## NCCS(=O)(=O)Cc1cnn(C[C@@H]2[C@H](NC(=O)/C(=N\OC3(C(=O)O)CC3)c3csc(N)n3)C(=O)N2S(=O)(=O)O)n1 [Example 152, 1-(((Z)-(2-(((2R,3S)-2-((4-(((2-aminoethyl)sulfonyl)methyl)-2H-1,2,3-triazol-2-yl)methyl)-4-oxo-1-sulfoazetidin-3-yl)amino)-1-(2-aminothiazol-4-yl)-2-oxoethylidene)amino)oxy)cyclopropanecarboxylic acid]
E. coli containing KPC-2
  MIC: 0.5 µg/mL (≈ 0.804 µM)
E. coli strain 25922
  MIC: 0.5 µg/mL (≈ 0.804 µM)

## NCC1CN(Cc2cnn(C[C@@H]3[C@H](NC(=O)/C(=N\OC4(C(=O)O)CC4)c4csc(N)n4)C(=O)N3S(=O)(=O)O)n2)C1 [Example 92, 1-(((Z)-(2-(((2R,3S)-2-((4-((3-(aminomethyl)azetidin-1-yl)methyl)-2H-1,2,3-triazol-2-yl)methyl)-4-oxo-1-sulfoazetidin-3-yl)amino)-1-(2-aminothiazol-4-yl)-2-oxoethylidene)amino)oxy)cyclopropanecarboxylic acid]
E. coli containing KPC-2
  MIC: 0.5 µg/mL (≈ 0.835 µM)
E. coli strain 25922
  MIC: 0.25 µg/mL (≈ 0.418 µM)

## CNCCNCc1cnn(C[C@@H]2[C@H](NC(=O)/C(=N\OC3(C(=O)O)CC3)c3csc(N)n3)C(=O)N2S(=O)(=O)O)n1 [Example 117, 1-(((Z)-(1-(2-aminothiazol-4-yl)-2-(((2R,3S)-2-((4-(((2-(methylamino)ethyl)amino)methyl)-2H-1,2,3-triazol-2-yl)methyl)-4-oxo-1-sulfoazetidin-3-yl)amino)-2-oxoethylidene)amino)oxy)cyclopropanecarboxylic acid]
E. coli containing KPC-2
  MIC: 1 µg/mL (≈ 1.7 µM)
E. coli strain 25922
  MIC: 0.5 µg/mL (≈ 0.852 µM)

## N=C(NCc1cnn(C[C@@H]2[C@H](NC(=O)/C(=N\OC3(C(=O)O)CC3)c3csc(N)n3)C(=O)N2S(=O)(=O)O)n1)N1CC[C@H](N)C1 [Example 150, 1-(((Z)-(2-(((2R,3S)-2-((4-(((S)-3-aminopyrrolidine-1-carboximidamido)methyl)-2H-1,2,3-triazol-2-yl)methyl)-4-oxo-1-sulfoazetidin-3-yl)amino)-1-(2-aminothiazol-4-yl)-2-oxoethylidene)amino)oxy)cyclopropanecarboxylic acid]
E. coli containing KPC-2
  MIC: 0.5 µg/mL (≈ 0.78 µM)
E. coli strain 25922
  MIC: 1 µg/mL (≈ 1.56 µM)

## Cc1c[n+](C)ccc1-c1cn(C[C@@H]2[C@H](NC(=O)/C(=N\OC(C)(C)C(=O)O)c3csc(N)n3)C(=O)N2S(=O)(=O)O)nn1 [Example 49, (2R,3S)-3-((Z)-2-(2-aminothiazol-4-yl)-2-(((2-carboxypropan-2-yl)oxy)imino)acetamido)-2-((4-(1,3-dimethylpyridin-1-ium-4-yl)-1H-1,2,3-triazol-1-yl)methyl)-4-oxoazetidine-1-sulfonate]
E. coli containing KPC-2
  MIC: 16 µg/mL
E. coli strain 25922
  MIC: 2 µg/mL
